According to patent US20260115261A1, “COLLAGEN PEPTIDE-BASED MEDICAMENT COMPOSITIONS AND USES THEREOF” (SUSTAIN HOLDINGS, LLC, priority 2023, published 2026):

How the values were obtained:
[1] = test system: cerebrovasculature of ApoE−/− STZ mice; assay: Diabetic atherosclerosis mouse model (ApoE−/− + STZ + high fat diet), cerebrovascular immunohistochemistry; type: in vivo
Description: Animals. All animal studies were conducted in accordance with the NIH guide for the care and use of laboratory animals and approved by the Vanderbilt University Institutional Animal Care and Use Committee. For the studies described, 12-week-old ApoE^−/− (#002052) or C57/B6J wildtype (WT) (#000664) mice were obtained from Jackson Laboratories. Mice were housed in a facility managed by Vanderbilt University Division of Animal Care with ad libitum access to water and standard diet followed by ad libitum access to 45% high fat diet (Research Diet Inc.; Catalog #D12451) starting at the correct study time point. Mice were subjected to 12-hr. light/dark cycle.
Animal Model of Diabetic Atherosclerosis. A diabetic atherosclerosis mouse model was implemented by combining ApoE^−/− mice with a streptozocin STZ-induced diabetic phenotype. Prior to STZ injection and diet change, baseline fasting blood glucose measurements and weights were obtained. To induce hyperglycemia ApoE^−/− mice were injected with STZ (50 mg/Kg in 10 mM sodium citrate, pH4.5; Millipore Sigma Catalog #S0130) intraperitoneally for five consecutive days. For the duration of STZ injections, mice received drinking water supplemented with 10% sucrose. One week after the final STZ injection, blood glucose levels were measured to confirm hyperglycemia. Mice were fasted for 6 hours prior to glucose measurement and then anesthetized with 2.5% isoflurane. Tail snips were taken, and one drop of blood was placed on test strips to obtain readings. Tails were then stemmed of bleeding using a silver nitrate applicator (Avoca reference number #7482) before returning mice to their cages. Any mice not registering as hyperglycemic were removed from the study. Remaining mice were then switched to a 45% high fat diet (HFD) to accelerate atherosclerotic plaque formation. After 1 week on HFD, mice were randomly assigned to receive intravenous CMP (n=5) or PBS (1×PBS, n=4) once weekly for 12 weeks. Upon conclusion of the study, mice were anesthetized via intraperitoneal pentobarbital injection followed by transcardial perfusion of 1×PBS and 4% paraformaldehyde (PFA). One day prior to sacrifice, mice were injected via tail vein injection with Sulfo-NHS-Biotin in sterile 1×PBS (Thermo-Fisher; Catalog #21335).
Intravenous Administration of CMPs. The CMP used in the present Example was a 21-aa single-strand peptide consisting of a 7-repeat sequence of a tripeptide of 4-fluoroproline (Flp), hydroxyproline (Hyp), and glycine (Gly), and abbreviated as (cis-Flp-Hyp-Gly)7 (SEQ ID NO:6). This CMP was manufactured using standard solid-phase peptide synthesis chemistry in limited quantity by Bachem, AG (Germany). CMP was dissolved in sterile 1×PBS at a concentration of […] and sterilized using a 0.22 µm filter (Millipore Sigma, Burlington, MA, USA). Mice were weighed and restrained in an apparatus designed for tail vein injection. Tails were heated to dilate the veins prior to weekly injection, and […] of CMP in sterile 1×PBS (vehicle) was injected to accommodate a final concentration in each animal of 0.1 mg/Kg. An additional batch of this CMP was produced with attachment of the TideFluor™ 2 moiety (AAT Bioquest, Sunnyvale, CA, United States) to the peptide as a fluorescent reporter. This labeled CMP was injected intravenously at 100 μM concentration (100 μL) to identify binding in WT vs. ApoE^−/−+STZ mice. CMP was injected 48 hours prior to sacrifice and again immediately before transcardial perfusion of 4% PFA. One day prior to euthanasia, tail veins were injected with Sulfo-NHS biotin to track vascular leakage. Sulfo-NHS Biotin (Thermo-Fisher; Catalog #21335) was dissolved in sterile 1×PBS (20 mg/mL) and sterilized through a […] filter. Mice were then restrained in tail vein apparatus and injected intravenously with 100 μL Sulfo-NHS biotin. […]

optic nerve = assay: Optic nerve crush, axon repair after intravitreal injection; type: in vivo, mice; details: for greater abundance of CTB-containing axon segments vs vehicle: measurements above the median, p≤0.02
Description: To further examine the effects of CMPs on nerve regeneration, optic nerve crush experiments were performed. This approach is a useful model of traumatic optic neuropathy and for assessing potential neuroreparative and neuroregenerative strategies (Cameron, E G et al., Bio-protocol 10(6) (Mar. 20, 2020), doi: 10.21769/BioProtoc.3559). Axon degeneration in this injury model also involves degradation of matrix collagen associated with robust tissue remodeling (Bernardo-Colon, A et al., Cell Death Dis. 9:1097 (2018); Sharma, T P et al., Mol. Neurodegener. 9:14 (2014)). Mice were subjected to […] nerve crush, and then three days later received an intravitreal injection of vehicle (DMSO) or of fluorescently tagged CMP 13A (SEQ ID NO:6). Optic nerves were longitudinally sectioned in the site of the injury two weeks following nerve crush, and sections were examined for axon length (via cholera toxin B labeling) and CMP localization (via fluorescence microscopy). Sections were also labeled with glial fibrillary acidic protein (GFAP) to localize astrocyte glia in the sections. […] Repaired axons were largely coincident with localized patches of CMP (FIG. 6C, arrows). Scale=200 μm (FIG. 6A) or 100 μm (FIGS. 6B,C).
Next, we quantitated the number of CTB+ green axon segments at discrete distances distal from the crush site (towards the brain). […] Even so, in both cohorts, there were a number of samples with few, if any, axons distal from the crush site, leading to substantial variability (FIG. 7B, inset). To better estimate the magnitude of the effect due to CMP 13A compared to vehicle, we pooled the measurements above the median at each location into three bins: 50-100 μm, 200-300 μm, and 400 μm and further from the injury site. […] Intact axon segments in these nerves were also longer than those in nerves from vehicle-treated eyes. The mean length of intact axon segments in nerves from CMP 13A-treated eyes was 51% greater than that in the vehicle cohort: 122.6±5.5 vs. 81.1±8.3 μm (p<0.001; FIG. 7D). Similarly, the mean for the longest 25 segments in the CMP 13A nerves was nearly 80% greater than that for vehicle nerves: 228.1±12.9 vs. 127.8±10.5 μm (p<0.001; FIG. 7E).

[2] = test system: dorsal root ganglion (DRG) neurons; assay: DRG explant neurite outgrowth on MMP-1-digested collagen treated with CMP; type: cell-based, rat
Description: Plates were then rinsed with culture medium, and DRG neuronal cells were plated uniformly on plates having one of three surface coating conditions: (1) intact collagen; (2) MMP1-digested collagen; and (3) MMP1-digested collagen+CMP. Plates were then incubated at 37° C. for 24 hours or 48 hours, and then examined for morphology and neurite outgrowth by inverted brightfield microscopy.
To measure neurite outgrowth accurately, explants were visualized live using multifocal high-magnification phase contrast microscopy to optimize identification and measurement of the longest neurite (FIG. 2A, white arrow) and the size of the DRG explant growth field.

For “Flp-Hyp-Gly-Flp-Hyp-Gly-Flp-Hyp-Gly-Flp-Hyp-Gly-Flp-Hyp-Gly-Flp-Hyp-Gly-Flp-Hyp-Gly [CMP 13A]”, the “vascular leakage of biotin” value ([1]; 3 months post-treatment, Sulfo-NHS biotin intravenous one day before euthanasia) was “not observed”, the “distance from individual astrocytes to the nearest blood vessel” value ([1]; CA1 (p<0.0001) and DG (p=0.0004)) was “closer to blood vessels than in PBS-treated mice” and the “GFAP density vs PBS” value ([1]; CA1 (p=0.07) and DG (p=0.06)) was “not significantly different”. The “biotin intensity (secondary measure of vessel density) vs PBS” value ([1]; CA1, DG and cortex) was “increased biotin labeling”, the “CD31 intensity vs PBS” value ([1]; CA1, cortex and DG (p=0.02, p<0.0001, p=0.01), 0.1 mg/Kg intravenous once weekly for 12 weeks) was “increased” and the “increase of collagen IV intensity relative to PBS-treated controls” value ([1]; CA1, p=0.01) was 170%. For the same substance, the “number of astrocyte soma vs PBS” value ([1]; CA1, p=0.02) was “decreased”, the “area of CD31-positive vessels vs PBS” value ([1]; CA1 and cortex (p=0.001 and p<0.0001), (cis-Flp-Hyp-Gly)7 0.1 mg/Kg intravenous once weekly for 12 weeks) was “significant increase” and the “CD31 intensity as a ratio of biotin intensity vs PBS” value ([1]; DG only (p=0.04)) was “significantly increased”. For the same substance, the “vessel (CD31) area vs control” value ([1]; DG, 0.1 mg/Kg intravenous once weekly for 12 weeks) was “no significant difference”, the “increase of collagen IV intensity relative to PBS-treated controls” value ([1]; DG, p=0.04) was 52% and the “number of astrocyte soma vs PBS” value ([1]; DG, p=0.31) was “not significantly different”. The “vascular structure by biotin labeling” value ([1]; all brain regions, vs shorter, more fragmented vessels in PBS-treated mice) was “longer, more complex vessels with increased branching”, the “increase of collagen IV intensity relative to PBS-treated controls” value ([1]; cortex, p=0.01) was 175% and the “greater abundance of CTB-containing axon segments vs vehicle” value (from here on “greater abundance … vs vehicle”) (optic nerve; 50-100 μm from injury site) was 29%. For the same substance, the “greater abundance … vs vehicle” value (optic nerve; 200-300 μm from injury site) was 39%, the “greater abundance … vs vehicle” value (optic nerve; 400 μm and further from injury site) was 96% and the “number of CTB+ axon segments at discrete distances distal from the crush site” value (optic nerve; fluorescently tagged CMP 13A intravitreal 3 days after crush, two weeks after crush, vs vehicle (DMSO)) was “more axon segments than nerves from vehicle eyes at each location examined”. For the same substance, the “distance of CTB+ segments distal from the injury, some samples” value (optic nerve; two weeks after crush) was ≤ 1 mm, the “mean for the longest 25 segments” value (optic nerve; two weeks after crush) was 228.1±12.9 μm and the “mean length of intact axon segments” value (optic nerve; two weeks after crush) was 122.6±5.5 μm. For the same substance, the “mean for the longest 25 segments, greater than vehicle nerves” value (optic nerve; two weeks after crush, p<0.001) was ~80% and the “mean length of intact axon segments, greater than vehicle cohort” value (optic nerve; two weeks after crush, p<0.001) was 51%.

“Pro-Flp-Gly-Pro-Flp-Gly-Pro-Flp-Gly-Pro-Flp-Gly-Pro-Flp-Gly-Pro-Flp-Gly-Pro-Flp-Gly [CMP 09C]” was tested, and the “longest neurite outgrowth, greater than intact collagen” value ([2]; 48 hours, MMP1-digested collagen + CMP 100 μM, normalized to intact collagen, p<0.036) was 21% and the “neurite outgrowth of DRG explants (phase contrast micrographs)” value ([2]; explants on damaged (MMP-1-digested) collagen treated with CMP 100 μM, 24 and 48 hours) was “improved outgrowth”.
